Results from patent US11492348B2, “Tri-substituted aryl and heteroaryl derivatives as modulators of PI3-kinase and autophagy pathways” (Neuropore Therapies, Inc., priority 2018, dated 2022).

Molecular target: PI3Kα (Homo sapiens (Human), UniProt P42336)
Assay: Inhibition of PI3Kα (ADP-Glo kinase activity assay, ATP to ADP conversion)
Format: biochemical
Conditions: 25 μM PIP2:PS, 60 μM ATP, 30 min reaction, luminescence; for IC50: read-out: PI3Ka IC50
Description: Quantification of ATP to ADP conversion as a measure of PI3Kα activity. Active PI3Kα (Life Technologies), in the presence or absence of PI3Kα inhibitor, was reacted with PIP2:PS (Life Technologies), a substrate specifically optimized for use with Class I PI3 kinases, and ultrapure ATP (Promega). The conversion of ATP to ADP by PI3Kα was measured as luminescence signal via Promega ADP-Glo kinase activity assay. Assay was validated using published PI3Kα inhibitors LY294002, PI-103, BYL719, GDC0198 and also DMSO vehicle control.
Compounds were prepared at 100× final concentration as a 12-point, 1:3 serial-dilution in DMSO series, with DMSO control as 12th point. Compound was then diluted in (25 mM HEPES pH 7.5, 1 mM EGTA, 0.3% CHAPS) prior to addition to PI3Kα. Active PI3Kα diluted to 0.24 ng/μL (1.1 nM) in (50 mM HEPES pH 7.5, 6 mM MgCl2, 1 mM EGTA, 200 mM NaCl, 0.03% CHAPS, 8 mM DTT) was incubated with compound for 0 hr and 3 hr prior to the start of the reaction. 25 μM PIP2:PS and 60 μM ATP were diluted from stock in (25 mM HEPES pH 7.5, 1 mM EGTA, 0.3% CHAPS) and added to initiate the PI3Kα reaction. Reaction time was 30 minutes. ATP to ADP conversion was measured in Luminescence Counts on DTX880 Plate Reader (Beckman Coulter). Compound IC50s were reported using GraphPad Prism software. Analytical method was non-linear regression, 4-parameter curve fit with bottom fit to validated PI3Kα inhibitor reference controls and no top fit (floating top).

Chain of PI3Kα (P42336 whole entry): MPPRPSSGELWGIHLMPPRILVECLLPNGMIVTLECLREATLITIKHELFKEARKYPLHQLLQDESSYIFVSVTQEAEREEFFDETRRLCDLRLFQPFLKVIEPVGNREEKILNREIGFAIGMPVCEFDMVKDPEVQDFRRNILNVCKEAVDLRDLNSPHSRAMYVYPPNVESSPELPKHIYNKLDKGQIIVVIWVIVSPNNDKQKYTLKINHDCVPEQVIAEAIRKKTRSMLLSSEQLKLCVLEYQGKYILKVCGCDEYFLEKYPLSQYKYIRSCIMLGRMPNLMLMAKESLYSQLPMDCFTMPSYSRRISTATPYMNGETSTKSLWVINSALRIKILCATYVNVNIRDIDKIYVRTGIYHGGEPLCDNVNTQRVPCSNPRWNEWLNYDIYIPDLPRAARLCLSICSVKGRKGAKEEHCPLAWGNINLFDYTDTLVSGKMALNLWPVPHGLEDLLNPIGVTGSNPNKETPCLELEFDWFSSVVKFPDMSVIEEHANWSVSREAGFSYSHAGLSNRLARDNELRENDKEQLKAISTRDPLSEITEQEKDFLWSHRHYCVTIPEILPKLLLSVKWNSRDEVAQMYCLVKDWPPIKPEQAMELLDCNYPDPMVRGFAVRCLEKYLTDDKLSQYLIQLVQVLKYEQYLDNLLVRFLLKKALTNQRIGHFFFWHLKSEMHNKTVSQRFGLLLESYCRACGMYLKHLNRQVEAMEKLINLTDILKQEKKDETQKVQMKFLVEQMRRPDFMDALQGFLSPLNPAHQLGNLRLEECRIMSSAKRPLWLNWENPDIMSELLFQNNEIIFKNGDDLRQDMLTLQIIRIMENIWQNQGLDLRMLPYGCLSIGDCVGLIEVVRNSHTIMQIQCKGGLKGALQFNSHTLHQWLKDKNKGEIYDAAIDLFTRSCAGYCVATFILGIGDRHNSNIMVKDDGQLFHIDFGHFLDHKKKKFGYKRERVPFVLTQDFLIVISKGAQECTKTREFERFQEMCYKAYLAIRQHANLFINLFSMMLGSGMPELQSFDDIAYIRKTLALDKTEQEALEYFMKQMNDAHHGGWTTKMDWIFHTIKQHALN
Chain of PI3Kα (P27986 whole entry partner): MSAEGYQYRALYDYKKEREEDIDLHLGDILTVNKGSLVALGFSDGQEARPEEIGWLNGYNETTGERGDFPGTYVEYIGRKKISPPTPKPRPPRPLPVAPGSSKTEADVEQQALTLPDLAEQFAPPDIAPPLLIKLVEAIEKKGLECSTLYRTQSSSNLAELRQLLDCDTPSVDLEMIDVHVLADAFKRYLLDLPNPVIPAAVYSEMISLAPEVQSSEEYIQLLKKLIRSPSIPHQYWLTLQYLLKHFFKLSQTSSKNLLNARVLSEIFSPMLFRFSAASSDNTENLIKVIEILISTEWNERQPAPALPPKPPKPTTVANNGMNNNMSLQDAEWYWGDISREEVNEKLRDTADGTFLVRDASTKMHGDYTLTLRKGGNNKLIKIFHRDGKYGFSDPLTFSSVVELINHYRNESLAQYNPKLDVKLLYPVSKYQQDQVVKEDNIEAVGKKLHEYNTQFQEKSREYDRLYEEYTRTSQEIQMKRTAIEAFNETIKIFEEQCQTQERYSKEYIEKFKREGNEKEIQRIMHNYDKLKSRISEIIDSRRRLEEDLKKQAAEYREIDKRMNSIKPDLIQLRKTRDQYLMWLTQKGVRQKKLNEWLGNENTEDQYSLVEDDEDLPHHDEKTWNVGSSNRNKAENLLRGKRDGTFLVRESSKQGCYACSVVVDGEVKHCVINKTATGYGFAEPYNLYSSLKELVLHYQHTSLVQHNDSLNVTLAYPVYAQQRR

Structure (SMILES)	PI3Ka IC50 [nM]	IC50 [nM]
Nc1ncc(-c2cc(N3CCOCC3)cc(S(=O)(=O)c3cccc(C(F)(F)F)c3)c2)cn1 [Compound 7, 5-(3-morpholino-5-((3-(trifluoromethyl)phenyl)sulfonyl)phenyl) pyrimidin-2-amine]	1800	
Nc1ncc(-c2cc(S(=O)(=O)C3CCOc4ccccc43)cc(N3CCOCC3)n2)cn1 (single isomer, unassigned; (-)) [(−) 143, 5-(4-(chroman-4-ylsulfonyl)-6-morpholinopyridin-2-yl)pyrimidin-2-amine]		1
CCNC(=O)Nc1ccc(-c2cc(N3CCOCC3)cc(S(=O)(=O)Cc3ccc(F)cc3)c2)cc1OC [Compound 40, 1-ethyl-3-(3′-((4-fluorobenzyl)sulfonyl)-3-methoxy-5′-morpholino-[1,1′-biphenyl]-4-yl)urea]	6500	
CNc1ncc(-c2cc(N3CCOCC3)cc(S(=O)(=O)Cc3ccccc3)c2)cn1 [Compound 31, 5-(3-(benzylsulfonyl)-5-morpholinophenyl)-N-methylpyrimidin-2-amine]	660	
CC(C)(C)OC(=O)N1CCC(N2CC(S(=O)(=O)c3cc(-c4cnc(N)nc4)cc(N4CCOCC4)c3)C2)CC1 [Compound 67, tert-butyl 4-(3-((3-(2-aminopyrimidin-5-yl)-5-morpholinophenyl)sulfonyl)azetidin-1-yl)piperidine-1-carboxylate]	800	
Nc1ncc(-c2cc(S(=O)(=O)C3CCOCC3)cc(N3CCOCC3)n2)cn1 [Compound 148, 5-(6-morpholino-4-((tetrahydro-2H-pyran-4-yl)sulfonyl)pyridin-2-yl)pyrimidin-2-amine]	13	
Nc1ncc(-c2cc(N3CCOCC3)cc(S(=O)(=O)c3ccccc3)c2)c(C(F)(F)F)n1 [Compound 3, 5-(3-morpholino-5-(phenylsulfonyl)phenyl)-4-(trifluoromethyl)pyrimidin-2-amine]	2000	
C[C@@H]1CC(S(=O)(=O)c2cc(-c3cnc(N)nc3)cc(N3CCOCC3)c2)C[C@H](C)O1 (stereo partly drawn) [Compound 85, 5-(3-(((2R,6S)-2,6-dimethyltetrahydro-2H-pyran-4-yl)sulfonyl)-5-morpholinophenyl)pyrimidin-2-amine]	1000	
CC(C)N1CCC(S(=O)(=O)c2cc(-c3cnc(N)nc3)cc(N3CCOCC3)c2)C1.Cl (centres unmarked) [Compound 89, 5-(3-((1-isopropylpyrrolidin-3-yl)sulfonyl)-5-morpholinophenyl)pyrimidin-2-amine hydrochloride]	2500	
CN(C)c1ncc(-c2cc(N3CCOCC3)cc(S(=O)(=O)c3ccccc3)c2)cn1 [Compound 4, N,N-dimethyl-5-(3-morpholino-5-(phenylsulfonyl)phenyl)pyrimidin-2-amine]	11000	
Nc1cc(C(F)(F)F)c(-c2cc(S(=O)(=O)c3ccccc3)cc(N3CCOCC3)n2)cn1 [Compound 144, 6-morpholino-4-(phenylsulfonyl)-4′-(trifluoromethyl)-[2,3′-bipyridin]-6′-amine]	390	
CC(C)(C)C(=O)N1CC(S(=O)(=O)c2cc(-c3cnc(N)nc3)cc(N3CCOCC3)c2)C1 [Compound 86, 1-(3-((3-(2-aminopyrimidin-5-yl)-5-morpholinophenyl)sulfonyl)azetidin-1-yl)-2,2-dimethylpropan-1-one]	580	
Nc1ncc(-c2cc(S(=O)(=O)[C@@H]3CCOC3)cc(N3CCOCC3)n2)cn1 [Compound 142b, (R)-5-(6-morpholino-4-((tetrahydrofuran-3-yl)sulfonyl)pyridin-2-yl)pyrimidin-2-amine]	6.8	
O=S(=O)(Cc1ccccc1)c1cc(-c2cnc(NC3CC3)nc2)cc(N2CCOCC2)c1 [Compound 104, 5-(3-(benzylsulfonyl)-5-morpholinophenyl)-N-cyclopropylpyrimidin-2-amine]	1300	
O=S(=O)(Cc1ccc(F)cc1)c1cc(-c2cccc(OC(F)(F)F)c2)cc(N2CCOCC2)c1 [Compound 46, 4-(5-((4-fluorobenzyl)sulfonyl)-3′-(trifluoromethoxy)-[1,1′-biphenyl]-3-yl)morpholine]	19000	
Cc1cn2cc(-c3cc(N4CCOCC4)cc(S(=O)(=O)Cc4ccccc4)c3)cnc2n1 [Compound 34, 4-(3-(benzylsulfonyl)-5-(2-methylimidazo[1,2-a]pyrimidin-6-yl)phenyl)morpholine]	13000	
Nc1ccc(-c2cc(N3CCOCC3)cc(S(=O)(=O)Cc3ccc(F)cc3F)c2)nc1 [Compound 98, -(3-((2,4-difluorobenzyl)sulfonyl)-5-morpholinophenyl)pyridin-3-amine]	12000	
CNc1ncc(-c2cc(N3CCOCC3)cc(S(=O)(=O)c3ccccc3)c2)cn1 [Compound 16, N-methyl-5-(3-morpholino-5-(phenylsulfonyl)phenyl)pyrimidin-2-amine]	1500	
Nc1ncc(-c2cc(S(=O)(=O)c3ccccc3)cc(N3CC4CCC(C3)O4)n2)cn1 [Compound 151, 5-(6-(8-oxa-3-azabicyclo[3.2.1]octan-3-yl)-4-(phenylsulfonyl)pyridin-2-yl)pyrimidin-2-amine]	830	
CC(C)N1CCC(S(=O)(=O)c2cc(-c3cnc(N)nc3)cc(N3CCOCC3)c2)CC1 [Compound 90, 5-(3-((1-isopropylpiperidin-4-yl)sulfonyl)-5-morpholinophenyl)pyrimidin-2-amine]	7220	
Cc1cc(N)nnc1-c1cc(N2CCOCC2)cc(S(=O)(=O)Cc2ccc(F)cc2F)c1 [Compound 99, 6-(3-((2,4-difluorobenzyl)sulfonyl)-5-morpholinophenyl)-5-methylpyridazin-3-amine]	4300	
Nc1ncc(-c2cc(S(=O)(=O)C3COc4ccccc43)cc(N3CCOCC3)n2)cn1 (centres unmarked) [Compound 147, 5-(4-((2,3-dihydrobenzofuran-3-yl)sulfonyl)-6-morpholinopyridin-2-yl)pyrimidin-2-amine]	7	
Nc1ncc(-c2cc(S(=O)(=O)C3CCOc4ccccc43)cc(N3CCOCC3)n2)cn1 (single isomer, unassigned; (+)) [(+) 143, 5-(4-(chroman-4-ylsulfonyl)-6-morpholinopyridin-2-yl)pyrimidin-2-amine]		4.5
Nc1ncc(-c2cc(N3CCOCC3)cc(S(=O)(=O)C3CN(Cc4ccc(F)cc4)C3)c2)cn1 [Compound 80, 5-(3-((1-(4-fluorobenzyl)azetidin-3-yl)sulfonyl)-5-morpholinophenyl)pyrimidin-2-amine]	660	
Nc1ncc(-c2cc(N3CCCCC3)cc(S(=O)(=O)c3ccccc3)c2)cn1 [Compound 25, 5-(3-(phenylsulfonyl)-5-(piperidin-1-yl)phenyl)pyrimidin-2-amine]	30000	
Nc1ncc(-c2cc(N3CCOCC3)cc(S(=O)(=O)c3ccc4ccccc4c3)c2)cn1 [Compound 9, 5-(3-morpholino-5-(naphthalen-2-ylsulfonyl)phenyl)pyrimidin-2-amine]	1500	
